Results published in patent US20040053915A1, “Use of stimulators of soluble guanylate cyclase for treating osteoporosis” (priority 2000, published 2004).

Test system: rats of the strain HsdCpb:Wu
Assay: Increased bone formation in rats after 4 weeks of once-daily administration via stomach tube
Type: in vivo
Conditions: once per day via stomach tube, male and female rats, all test animals
Method: For a period of 4 weeks, one of the two compounds listed in Table 1 was administered, in each case in one of the concentrations given in Table 1, once per day via a stomach tube to 10 male and 10 female rats of the strain HsdCpb:Wu. […] Pathological endosteal or periosteal changes were not noticed.

Structure (SMILES) | bone formation in the area of the spongioid bone proximally and distally to the epiphyseal arcus of the great tubular bones (50 mg/kg or more) | bone formation in the area of the spongioid bone proximally and distally to the epiphyseal arcus of the great tubular bones (5 mg/kg or more)
Nc1nc(-c2nn(Cc3ccccc3F)c3ncccc23)ncc1C1CC1 [Compound 1] | increased bone formation | 
Nc1nc(-c2nn(Cc3ccccc3F)c3ncccc23)nc(N)c1N1CCOCC1 [Compound 2] |  | increased bone formation
